From publication PMC5638611, “Effects of glutamate and ivermectin on single glutamate-gated chloride channels of the parasitic nematode H. contortus” (PLoS Pathogens, 2017)

Key:
[1] = target: T1, glutamate-gated chloride channel receptor α (avr-14b) (GluClR), homomeric (Haemonchus contortus, UniProt O46124); test: outside-out patch single-channel recording; direct activation by […] IVM, and potentiation of […] glutamate; format: cell-based
T1 construct: gene gbr-2; homomeric avr-14b subunit expressed in HEK AD293 cells
T1 sequence (O46124 entry or part of it): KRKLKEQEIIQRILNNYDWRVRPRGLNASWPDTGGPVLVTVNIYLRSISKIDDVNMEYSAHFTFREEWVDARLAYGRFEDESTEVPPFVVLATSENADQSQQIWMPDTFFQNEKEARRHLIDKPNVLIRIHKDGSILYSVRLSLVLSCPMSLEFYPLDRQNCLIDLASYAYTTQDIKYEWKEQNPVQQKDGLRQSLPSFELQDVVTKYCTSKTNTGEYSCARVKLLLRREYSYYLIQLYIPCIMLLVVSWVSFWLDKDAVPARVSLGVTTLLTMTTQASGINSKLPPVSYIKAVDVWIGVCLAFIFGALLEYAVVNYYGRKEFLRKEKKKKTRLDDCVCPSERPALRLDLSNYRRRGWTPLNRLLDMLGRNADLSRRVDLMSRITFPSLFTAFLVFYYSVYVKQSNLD

[2] = target: T2, glutamate-gated chloride channel receptor α (avr-14b) (GluClR), homomeric, G36'A mutant (Haemonchus contortus, UniProt O46124, G329A); test: outside-out patch single-channel recording; direct activation by […] IVM; format: cell-based
T2 construct: gene gbr-2; homomeric avr-14b subunit expressed in HEK AD293 cells
T2 sequence (O46124 31-438 G329A): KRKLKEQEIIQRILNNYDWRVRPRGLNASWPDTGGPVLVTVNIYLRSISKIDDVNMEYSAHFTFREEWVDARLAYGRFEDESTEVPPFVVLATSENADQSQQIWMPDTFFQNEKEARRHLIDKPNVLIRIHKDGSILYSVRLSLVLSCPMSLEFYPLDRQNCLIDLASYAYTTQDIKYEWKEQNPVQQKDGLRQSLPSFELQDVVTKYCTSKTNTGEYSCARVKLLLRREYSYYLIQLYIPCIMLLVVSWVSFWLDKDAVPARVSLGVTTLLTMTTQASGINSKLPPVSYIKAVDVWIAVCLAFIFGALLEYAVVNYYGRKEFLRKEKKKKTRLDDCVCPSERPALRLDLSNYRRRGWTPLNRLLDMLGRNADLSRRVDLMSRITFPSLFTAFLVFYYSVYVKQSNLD

With `CC[C@H](C)[C@H]1O[C@]2(CC[C@@H]1C)C[C@@H]1C[C@@H](C/C=C(\C)[C@@H](O[C@H]3C[C@H](OC)[C@@H](O[C@H]4C[C@H](OC)[C@@H](O)[C@H](C)O4)[C@H](C)O3)[C@@H](C)/C=C/C=C3\CO[C@@H]4[C@H](O)C(C)=C[C@@H](C(=O)O1)[C@]34O)O2` [Ivermectin] the “outside-out patch single-channel recording; direct activation by 5 nM IVM, and p” value [1] was 5 nM and the “outside-out patch single-channel recording; direct activation by 5 nM IVM” value [2] was 5 nM.
